Laboratory results reported in US6762045B2, “Membrane derived caspase-3, compositions comprising the same and methods of use therefor” (Idun Pharmaceuticals, Inc., priority 2000, dated 2004).
Where two headings read alike, the source gives them in different places.

Experiments:
[1] = target: T1, 697 Bcl-2 HM (caspase-1 treated) derived caspase (Homo sapiens, UniProt P42574); assay: Inhibition of DEVD-amc cleavage, caspase-1 activated 697-Bcl-2 heavy membranes; assay type: biochemical
T1 construct: the heavy membrane caspase is comprised of a large 19-kDa subunit and a smaller 12-kDa subunit; endogenous in cells; host or cells: 697-neo / 697-Bcl-2 human lymphoblastoid cells; supernatant assayed
T1 sequence (P42574 14-175): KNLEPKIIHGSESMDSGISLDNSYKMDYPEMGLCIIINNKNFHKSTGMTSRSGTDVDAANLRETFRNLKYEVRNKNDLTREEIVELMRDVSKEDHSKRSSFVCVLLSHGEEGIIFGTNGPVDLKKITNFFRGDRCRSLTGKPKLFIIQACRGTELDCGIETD
T1 sequence (P42574 176-277): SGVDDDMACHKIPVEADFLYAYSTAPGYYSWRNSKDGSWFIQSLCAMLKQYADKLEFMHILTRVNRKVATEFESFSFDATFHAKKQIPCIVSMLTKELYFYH
Experimental: (§1) SEQ ID NO:6) substrate in ICE buffer (20 mM HEPES, 1 mM EDTA, 0.1% CHAPS, 10% sucrose, 5 mM DTT, pH 7.5) in duplicate Cytoplate wells. […] KM values were calculated from these measurements using the equation: where ΔFL/Δt is the observed initial rate of fluorescence change at substrate concentration [S] and (ΔFL/Δt)MAX is the initial rate of fluorescence change at saturating substrate concentrations. For inhibition studies, 50 μl of the enzyme was pretreated with 150 μl inhibitor for 30 min at room temperature prior to the addition of 50 μl of 50 μM substrate solution.

[2] = target: MN9D HM (caspase-1 treated) derived caspase; assay: Inhibition of DEVD-amc cleavage, caspase-1 activated MN9D heavy membranes; assay type: biochemical, mouse
Experimental: (§2) Caspase activity was measured by mixing 50 μl of an enzyme-containing fraction and 200 μl of 25 μM DEVD-amc (Asp-Glu-Val-Asp-aminomethylcoumarin; SEQ ID NO:6) substrate in ICE buffer (20 mM HEPES, 1 mM EDTA, 0.1% CHAPS, 10% sucrose, 5 mM DTT, pH 7.5) in duplicate Cytoplate wells. Product formation was monitored by the increase in fluorescence (ex=360 nm, em=460 nm) over 1-2 hours at 30° C. using the CytoFluor 4000 plate reader (Perseptive Biosystems, Framingham, Mass.). For kinetic studies, the substrate concentration was varied in the range 1-200 μM. KM values were calculated from these measurements using the equation: […]
(§3) where ΔFL/Δt is the observed initial rate of fluorescence change at substrate concentration [S] and (ΔFL/Δt)MAX is the initial rate of fluorescence change at saturating substrate concentrations. […] Inhibitor IC50 values were determined using the equation: […]
(§4) ΔFL/Δt is the observed initial rate of fluorescence change at inhibitor concentration [I] and (ΔFL/Δt)o is the initial rate fluorescence change for the uninhibited enzyme. […]
(§5) To determine if the presence of membrane derived caspase activity is a general property of mammalian cells, the DEVD-amc cleavage activity in heavy membranes from two other cell sources was measured: mouse E 15 primary brain cortical cells and the mouse dopaminergic MN9D cell line (Choi et al., […] 89:8943-8947, 1992). […]

[3] = tested on: cortical cell HM (caspase-1 treated) derived caspase; assay: Inhibition of DEVD-amc cleavage, caspase-1 activated E15 brain cortical cell heavy membranes; assay type: biochemical, mouse
Experimental: as §2, §3, §4, §5

caspase-1 = target: T2, caspase-1 (Mus musculus, UniProt P29452); assay: Caspase-1 inhibition; assay type: biochemical; settings: 300 nM
T2 construct: contains the p30 caspase-1 cDNA inserted into the Nde I/BamH I sites of the pET3a expression vector; FLAG; made in house; host or cells: E. coli BL21 (DE3) pLysS, pET3a; used as clarified bacterial lysate
T2 sequence (P29452 119-296 limits assumed): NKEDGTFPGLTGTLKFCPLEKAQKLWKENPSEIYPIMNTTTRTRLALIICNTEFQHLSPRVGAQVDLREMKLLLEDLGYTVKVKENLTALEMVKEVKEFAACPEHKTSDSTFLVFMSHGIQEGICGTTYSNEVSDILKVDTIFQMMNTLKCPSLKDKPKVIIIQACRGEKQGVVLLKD
T2 sequence (P29452 315-402 limits assumed): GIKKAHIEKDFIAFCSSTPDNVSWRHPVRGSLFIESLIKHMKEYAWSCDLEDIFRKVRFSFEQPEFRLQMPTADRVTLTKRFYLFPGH

[4] = target: T3, caspase-1 activation of membrane derived procaspase-3 (Mus musculus, UniProt P29452); assay: Caspase-1 mediated activation of membrane procaspase-3 in 697 heavy membranes; assay type: biochemical, human
T3 construct: contains the p30 caspase-1 cDNA inserted into the Nde I/BamH I sites of the pET3a expression vector; FLAG; made in house; host or cells: caspase-1: E. coli BL21 (DE3) pLysS lysate; procaspase-3: endogenous in 697 cell heavy membranes
T3 sequence (P29452 119-296 limits assumed): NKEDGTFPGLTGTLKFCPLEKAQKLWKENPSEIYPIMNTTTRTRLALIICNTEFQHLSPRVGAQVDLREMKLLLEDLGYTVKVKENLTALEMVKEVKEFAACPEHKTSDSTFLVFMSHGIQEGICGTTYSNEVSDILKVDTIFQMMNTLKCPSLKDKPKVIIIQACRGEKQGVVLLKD
T3 sequence (P29452 315-402 limits assumed): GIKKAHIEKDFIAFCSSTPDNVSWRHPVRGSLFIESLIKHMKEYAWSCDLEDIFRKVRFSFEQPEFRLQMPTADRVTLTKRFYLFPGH
Experimental: Heavy membrane samples were diluted to 1 mg/ml in hypotonic buffer or in 0.25 M sucrose, 10 mM MOPS, 2 mM EDTA, pH 7.4 (Mancini, et al., 1998) containing 5 mM DTT with or without 1% NP-40. […] After the activation period, the heavy membrane pellet was removed from the sample by centrifugation for 10 min at 14,000×g at 4° C. […] In some experiments, caspase-1 activity was rapidly quenched at specific time points by the addition of one-tenth volume 3 μM YVADaldehyde (Bachem Bioscience, King of Prussia, Pa.) prior to centrifugation. To examine the time course of spontaneous activation of caspase activity from membranes, 50 μi of heavy membrane slurry containing 50-100 μg total protein was mixed with 200 μl hypotonic buffer containing 25 μM DEVD-amc substrate and 6 mM DTT in 96 well Cytofluor plates and fluorescence was measured over time. At selected time points, aliquots were removed from some wells, centrifuged for 10 min at 14,000×g to remove the heavy membranes and the supernatant was added back into the 96 well plate to measure the soluble DEVD-amc cleavage activity. […]
In this experiment, heavy membrane fractions (containing 50 μg total protein) from 697-Bcl-2 and 697-neo cells were re-suspended and treated with murine caspase-1 for one hour at room temperature. Following centrifugation, the DEVD-amc cleavage activity of the resulting supernatant was measured.

[5] = target: T4, recombinant human caspase-3 (r-caspase-3 (His)6) (Homo sapiens, UniProt P42574); assay: DEVD-amc cleavage by recombinant caspase-3; assay type: biochemical
T4 construct: The large subunit of purified bacterially expressed caspase-3 migrates as a 17-kDa band; purified fully-processed recombinant human caspase-3; His6 (C); made in house; host or cells: E. coli BL21 (DE3), pET21b; Ni2+ chelating column
T4 sequence (P42574 29-175 limits assumed): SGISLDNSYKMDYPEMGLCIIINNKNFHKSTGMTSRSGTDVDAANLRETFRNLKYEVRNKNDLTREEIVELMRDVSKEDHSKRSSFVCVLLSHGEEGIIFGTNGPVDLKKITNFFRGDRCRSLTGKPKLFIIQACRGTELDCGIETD
T4 sequence (P42574 176-277 limits assumed): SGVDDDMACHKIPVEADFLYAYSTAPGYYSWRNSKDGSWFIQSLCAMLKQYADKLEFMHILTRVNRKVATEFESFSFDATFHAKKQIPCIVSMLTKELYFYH
Experimental: (§6) For inhibition studies, 50 μl of the enzyme was pretreated with 150 μl inhibitor for 30 min at room temperature prior to the addition of 50 μl of 50 μM substrate solution.

[6] = target: T5, 697-neo HM (caspase-1 treated) derived caspase (Homo sapiens, UniProt P42574); assay: Inhibition of DEVD-amc cleavage, caspase-1 activated 697-neo heavy membranes; assay type: biochemical
T5 construct: the heavy membrane caspase is comprised of a large 19-kDa subunit and a smaller 12-kDa subunit; endogenous in cells; host or cells: 697-neo / 697-Bcl-2 human lymphoblastoid cells; supernatant assayed
T5 sequence (P42574 14-175): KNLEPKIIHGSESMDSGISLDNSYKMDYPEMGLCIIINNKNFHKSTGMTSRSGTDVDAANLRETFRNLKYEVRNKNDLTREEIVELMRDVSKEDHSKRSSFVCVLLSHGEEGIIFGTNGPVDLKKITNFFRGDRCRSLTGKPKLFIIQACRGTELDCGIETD
T5 sequence (P42574 176-277): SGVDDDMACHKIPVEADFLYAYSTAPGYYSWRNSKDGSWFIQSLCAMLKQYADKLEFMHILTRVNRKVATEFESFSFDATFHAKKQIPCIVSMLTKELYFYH
Experimental: as §1

[7] = target: T6, purified membrane derived caspase-3 (Homo sapiens, UniProt P42574); assay: DEVD-AMC cleavage by affinity purified membrane derived caspase-3 from 697 cells; assay type: biochemical
T6 construct: the heavy membrane caspase is comprised of a large 19-kDa subunit and a smaller 12-kDa subunit; endogenous in cells; host or cells: 697 human lymphoblastoid cells
T6 sequence (P42574 14-175): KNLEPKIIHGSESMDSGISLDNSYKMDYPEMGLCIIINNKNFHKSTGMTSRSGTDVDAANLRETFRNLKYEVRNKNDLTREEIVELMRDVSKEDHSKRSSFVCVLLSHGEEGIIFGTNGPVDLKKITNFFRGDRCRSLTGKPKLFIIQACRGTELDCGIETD
T6 sequence (P42574 176-277): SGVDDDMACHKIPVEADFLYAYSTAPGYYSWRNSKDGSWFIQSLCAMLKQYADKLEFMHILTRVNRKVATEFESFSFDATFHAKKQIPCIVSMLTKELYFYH
Experimental: as §6

In the case of `CC(=O)N[C@@H](Cc1ccc(O)cc1)C(=O)N[C@H](C(=O)N[C@@H](C)C(=O)N[C@H](C=O)CC(=O)O)C(C)C` [YVAD-ald], the IC50 [1] is reported as greater than 10 µM, the IC50 [2] is reported as greater than 10 µM and the IC50 [3] is reported as greater than 10 µM. For the same molecule, the “Inhibition of caspase-1” value (caspase-1) was “completely inhibits”, the “Block of caspase-1 activation of membrane caspase” value ([4]; 200 nM) was “completely blocked” and the “Block of activation of DEVD-AMC hydrolytic activity and generation of 20-kDa large subunit” value ([4]; caspase-1 pretreated with 300 nM) was “blocks”. For the same molecule, the IC50 ([5]; inhibition of DEVD-amc cleavage, read-out: IC50 r-caspase-3 (His)6) was greater than 10 µM, the IC50 ([5]; read-out: IC50 caspase-3) was greater than 10 µM and the “Inhibition of DEVD-AMC hydrolysis activity of caspase-1 activated membrane caspase” value ([6]; 300 nM) was “not inhibited”. It also gave an IC50 ([6]; inhibition of DEVD-amc cleavage) greater than 10 µM.

In the case of `CC(C)[C@H](NC(=O)[C@H](CCC(=O)O)NC(=O)OCc1ccccc1)C(=O)N[C@H](C=O)CC(=O)O` [ZEVDald], the IC50 ([7]; inhibition of DEVD-AMC cleavage, Table III, read-out: IC50 Membrane (purified membrane derived caspase-3)) is reported as 32 nM.

B1: Baculovirus p35: early p35 protein from Autographa californica nuclear polyhedrosis virus, recombinant (protein)
chain: MCVIFPVEIDVSQTIIRDCQVDKQTRELVYINKIMNTQLTKPVLMMFNISGPIRSVTRKNNNLRDRIKSKVDEQFDQLERDYSDQMDGFHDSIKYFKDEHYSVSCQNGSVLKSKFAKILKSHDYTDKKSIEAYEKYCLPKLVDERNDYYVAVCVLKPGFENGSNQVLSFEYNPIGNKVIVPFAHEINDTGLYEYDVVAYVDSVQFDGEQFEEFVQSLILPSSFKNSEKVLYYNEASKNKSMIYKALEFTTESSWGKSEKYNWKIFCNGFIYDKKSKVLYVKLHNVTSALNKNVILNTIK
Work on B1 yielded an IC50 ([7]; read-out: IC50 heavy membrane caspase from 697 cells) of 0.074 nM and an IC50 ([5]; inhibition of DEVD-AMC cleavage, Table III, read-out: IC50 Recombinant (caspase-3)) of 4.1e-05 µM.
